Entries after “also recorded” stand apart in the source; their conditions may differ. Read-outs that look alike come from different tables or passages of the source.
Tests used:
[1] = test system: central nervous system; experiment: Central nervous system (CNS) safety study in rats; assay type: in vivo, rat
Method: This study was conducted at ClinTrials BioResearch (CTBR, Montreal, Quebec, Canada) as a GLP study.
Results: All animals were observed twice daily for signs of ill health or reaction to treatment, except on day of arrival and necropsy. A Functional Observation Battery
(FOB) assessment, along with grip strength, hind limb splay and body temperature measurements were performed for all animals once pre-dose and at approximately 15 minutes, 1 hour, 4 hours, 8 hours and 24 hours post-dose. After the last observation, all animals were euthanized without further examination.

[2] = Phase 1 Study S-(1)-01, i.v. weekly x3 in a 28-day cycle, safety and pharmacokinetics; assay type: in vivo, patients; conditions: for AUC0-24 / Cl / Vss / t1/2: Study S-(1)-01 (50:50 Cremophor EL-P/ethanol), i.v., first dose
Method: Both trials have enrolled patients with advanced solid tumors, non-Hodgkin's lymphoma or Hodgkin's lymphoma that have recurred or progressed following at least standard therapy; patients with malignancies for which there is no standard therapy; patients who are not candidates for standard therapy; or patients who have chosen not to pursue standard therapy.
Plasma pharmacokinetics of S-(1) were assessed following the first dose of S-(1) in both studies. Plasma samples were analyzed for S-(1) using a validated LC/MS-MS method.
Treatment cohorts consisted of 3 pts and were expanded to 6 pts in the face of dose-limiting toxicity (DLT); pts could remain on study until the development of progressive disease or an intolerable adverse event. DLT was defined as Gr 4 heme toxicity lasting 7 days; febrile neutropenia, Gr 3 thrombocytopenia with bleeding, Gr 3 elevation of transaminases lasting 7 days or any other Gr 3/4 toxicity other than nausea or vomiting. Results: 25 pts (M:F 16:9, median age 60, range 24-86) were enrolled in 7 dose levels ranging from 7-185 mg/m^2. Pts' cancers included colorectal (6 pts); NSCLC (2); prostate (2); squamous cell carcinoma (2) and 1 pt each with cervical, breast, ovarian, gastric, pancreatic, bladder endometrial, NSCLC, SCLC, glioblastoma, melanoma, renal cell and hepatocellular carcinoma.

[3] = test system: human U251 (glioblastoma) CNS tumor cells; conditions: for median day of death and median survival time: iv, 240 h
Source text: Tumor Model: Each animal was implanted with one million U251 human CNS tumor cells from an in vitro cell line by ic injection with a 25 gauge needle. The day of tumor implantation (May 24, 2006) was designated as day 0. A sufficient number of mice were implanted so that animals with body weights in a range as narrow as possible were selected for the trial on the day of treatment initiation (day 1 after tumor implantation). Animals were randomly assigned to the treatment groups and individually identified by earmark codes.
A portion of this solution was then diluted with the complete vehicle to achieve the lower dosing concentration of 1.2 mg/mL. […] Temozolomide (Temodar, Schering Corporation) was prepared on each day of injection in Klucel+tween 80 at a concentration of 4 mg/mL. Temozolomide was administered within 5 minutes of formulation on the basis of exact body weight using a volume of 0.2 mL/10 g of body weight.
Data Collection: Animal health surveillance was conducted and mortality data were collected daily. The animals were weighed twice weekly starting with the first day of treatment.
Study Duration: The study was terminated 100 days after tumor implantation. Any animal found moribund or whose body weight dropped below 14 g was euthanized prior to study termination.
Parameters Evaluated: Number of 100-day survivors, median day of death, and the increase in lifespan based on median day of death and expressed as a percentage (% ILS), median survival time and the % ILS based on median survival time.
Administration of the Ringer's solution was initiated when animal body weights dropped by greater than 10% and continued until the animal recovered, died, or was euthanized.

[4] = S-(1) pharmacokinetics in mouse, plasma and brain levels after single IV bolus; assay type: in vivo, mice; conditions: single IV 20 mg/kg; for AUC (0-t) / AUC (0-∞) / Cmax / MRT (expo): male CD-1 mice
Method: S-(I) was formulated in 7% Ethanol: 3% Cremophor EL: 90% D5W (5% Dextrose in water). The formulated drug was administered as a single IV bolus via tail vein injection. The details are set out below:
Sample Collection timing: Terminal blood (plasma) and brain specimens were collected at 9 times post-dose, with 4 mice per sample time. Sample collection times:
Blood collection: A terminal blood sample was collected from each mouse via cardiac puncture. The whole blood was collected on wet ice, spun down immediately (at 4° C.), and plasma stored frozen at −20° C. until analysis. The anticoagulant used was K2EDTA. Brain Sample Collection: Whole brains were removed by dissection. Brains were collected on wet ice, weighed, and stored at −20° C.

[5] = S-(1) rat oral bioavailability, formulations evaluated in vivo
Method: IV formulation (Cremophor El P/alcohol) and a suspension of the compound of Formula S-(1) in aqueous medium: Several studies were performed to investigate specific parameters.
Using the 50:50 CremophoπEthanol formulation as a case study (AUC last: 2540; norm AUCinf: 477), F was calculated from the ratio of the normalized PO and IV AUCs: F(%)=norm. AUC PO/norm. AUC IV.

[6] = S-(1) Injection mouse PK parameters, IV and oral; assay type: in vivo
[7] = weekly study summary, dose of 127.5 mg/m^2

Q: With C=C[C@H]1O[C@H]2CC3OC[C@@]3(OC(C)=O)[C@H]3[C@H](OC(=O)c4ccccc4)[C@]4(C(C)(C)O)C[C@H](OC(=O)[C@H](O)[C@H](CC(C)C)NC(=O)OC(C)(C)C)C(C)=C4[C@H](OC(C)=O)[C@H](O1)[C@]23C (stereo partly drawn) [S-(1)] as the compound, how does the “biological effect on central nervous system (functional observational battery, grip strength, hind limb splay, body temperature)” value ([1]; single intravenous 6.25, 12.5 or 25 mg/kg, male Sprague Dawley rats, 15 minutes, 1, 4, 8 and 24 hours post-dose) read?
A: Its value is “no biological effects”.

Q: What about the “deaths or treatment-related clinical signs” value ([1]; single intravenous 6.25, 12.5 or 25 mg/kg, male rats) of the same compound?
A: Its value is “no deaths or treatment-related clinical signs”.

Q: And the “no adverse effect level” value ([1]; single intravenous dose, male Sprague Dawley rats)?
A: Its value is 25 mg/kg.

Q: And the AUC0-24 ([2]; 14 mg/m^2, plasma)?
A: Its AUC0-24 is 457 ± 297 ng·h/mL.

Q: What about the Cl ([2]; 14 mg/m^2, plasma) of the same compound?
A: The Cl was 35.5 ± 29.7 L/hr/m^2.

Q: And the Vss ([2]; 14 mg/m^2, plasma)?
A: The Vss was 23.2 ± 74.5 L/m^2.

Q: And the t1/2 ([2]; 14 mg/m^2, plasma)?
A: The t1/2 was 8.4 ± 11.5 h.

Q: And the AUC0-24 ([2]; 28 mg/m^2, plasma)?
A: The AUC0-24 was 682 ± 322 ng·h/mL.

Q: And the Cl ([2]; 28 mg/m^2, plasma)?
A: The Cl was 43.5 ± 14.5 L/hr/m^2.

Q: And the Vss ([2]; 28 mg/m^2, plasma)?
A: The Vss was 309 ± 161 L/m^2.

Q: And the t1/2 ([2]; 28 mg/m^2, plasma)?
A: The t1/2 was 3.45 ± 1.09 h.

Q: And the AUC0-24 ([2]; 56 mg/m^2, plasma)?
A: The AUC0-24 was 2070 ± 888 ng·h/mL.

Q: And the Cl ([2]; 56 mg/m^2, plasma)?
A: The Cl was 28.6 ± 13.2 L/hr/m^2.

Q: What about the Vss ([2]; 56 mg/m^2, plasma) of the same compound?
A: Its Vss is 216 ± 70 L/m^2.

Q: And the t1/2 ([2]; 56 mg/m^2, plasma)?
A: Its t1/2 is 5.66 ± 3.63 h.

Q: And the AUC0-24 ([2]; 85 mg/m^2, plasma)?
A: Its AUC0-24 is 5970 ± 3900 ng·h/mL.

Q: What about the Cl ([2]; 85 mg/m^2, plasma) of the same compound?
A: Its Cl is 16.6 ± 9.26 L/hr/m^2.

Q: What about the Vss ([2]; 85 mg/m^2, plasma) of the same compound?
A: The Vss was 142 ± 75.6 L/m^2.

Q: What about the t1/2 ([2]; 85 mg/m^2, plasma) of the same compound?
A: The t1/2 was 5.52 ± 5.26 h.

Q: And the AUC0-24 ([2]; 127.5 mg/m^2, plasma)?
A: Its AUC0-24 is 4460 ± 2140 ng·h/mL.

Q: And the Cl ([2]; 127.5 mg/m^2, plasma)?
A: The Cl was 30.2 ± 11.9 L/hr/m^2.

Q: What about the Vss ([2]; 127.5 mg/m^2, plasma) of the same compound?
A: The Vss was 239 ± 116 L/m^2.

Q: What about the t1/2 ([2]; 127.5 mg/m^2, plasma) of the same compound?
A: Its t1/2 is 6.59 ± 2.60 h.

Q: And the dose limiting toxicity ([2]; Study S-(1)-01, i.v. weekly ×3, observed in one patient at 185 mg/m^2)?
A: The dose limiting toxicity was “Grade 3 sensory neuropathy; also recorded: Grade 3 peripheral neuropathy”.

Q: And the half-life ([2]; both sexes, human, plasma, intravenous, Study S-(1)-01, after first dose, read-out: Plasma t1/2, range over dose groups)?
A: The half-life was 3.45 to 8.4 h.

Q: What about the “dose dependence of AUC (in words)” value ([2]; weekly study) of the same compound?
A: The value was “generally dose linear”.

Q: And the clearance [2, 7]?
A: The clearance was 30.2+11.9 L/hr/m^2.

Q: What about the tm [2, 7] of the same compound?
A: Its tm is 8.6+1.3 hrs.

Q: And the anti-neoplastic activity ([2]; weekly study, patients with advanced neoplasms)?
A: The anti-neoplastic activity was “Anti-neoplastic activity was seen in a patient with pancreatic cancer”.

Q: What about the “drug related adverse events” value ([2]; weekly ×3 then 1 week rest, 7-185 mg/m^2, 25 pts) of the same compound?
A: The value was “nausea, vomiting, diarrhea, fatigue, anorexia, rash, anemia and peripheral neuropathy”.

Q: And the “dose that can be safely administered” value ([2]; weekly×3 in heavily pre-treated patients)?
A: The value was “up to 185 mg/m^2”.

Q: What about the “median day of death and median survival time” value ([3]; 12 mg/kg) of the same compound?
A: Its value is 14.5 days.

Q: And the “median day of death and median survival time” value ([3]; 20 mg/kg)?
A: The value was 16 days.

Q: And the “effect against the U251 human CNS tumor cells (in words)” value ([3]; monotherapy or combination treatment, intracranial xenograft)?
A: The value was “moderate effect”.

Q: And the “AUC (0-t)” value ([4]; Brain)?
A: Its value is 64984.9 ng·h/mL.

Q: What about the “AUC (0-∞)” value ([4]; Brain) of the same compound?
A: The value was 88742.9 ng·h/mL.

Q: What about the Cmax ([4]; Brain) of the same compound?
A: Its Cmax is 3726.6 ng/mL.

Q: And the “MRT (expo)” value ([4]; Brain)?
A: Its value is 42.5 h.

Q: What about the “AUC (0-t)” value ([4]; Plasma) of the same compound?
A: The value was 16870.2 ng·h/mL.

Q: What about the “AUC (0-∞)” value ([4]; Plasma) of the same compound?
A: The value was 16951.2 ng·h/mL.

Q: And the Cmax ([4]; Plasma)?
A: Its Cmax is 1550.2 ng/mL.

Q: What about the “MRT (expo)” value ([4]; Plasma) of the same compound?
A: The value was 17.6 h.

Q: And the “passage of the blood-brain barrier (in words)” value ([4]; mouse model)?
A: Its value is “not impeded by the blood-brain barrier”.

Q: What about the “difference in F with different formulations (in words)” value [5] of the same compound?
A: The value was “no significant difference in F with different formulations”.

Q: What about the bioavailability ([5]; in vivo, using a cremophor-free formulation as reference, read-out: effective F (real bioavailability)) of the same compound?
A: Its bioavailability is 60 to 70%.

Q: What about the AUCinf ([6]; IV 10/mg/kg) of the same compound?
A: The AUCinf was 7.738 µM·h.

Q: And the AUClast ([6]; IV 10/mg/kg)?
A: The AUClast was 6.298 µM·h.

Q: What about the CL ([6]; IV 10/mg/kg) of the same compound?
A: The CL was 24.8 mL/min/kg.

Q: And the Vdss ([6]; IV 10/mg/kg)?
A: The Vdss was 13.35 L/kg.

Q: What about the t½ ([6]; IV 10/mg/kg) of the same compound?
A: The t½ was 6.1 h.

Q: And the AUCinf ([6]; Oral 10 mg/kg)?
A: Its AUCinf is 3.609 µM·h.

Q: What about the AUClast ([6]; Oral 10 mg/kg) of the same compound?
A: Its AUClast is 3.434 µM·h.

Q: What about the Cmax ([6]; Oral 10 mg/kg) of the same compound?
A: The Cmax was 460 nM.

Q: And the t½ ([6]; Oral 10 mg/kg)?
A: Its t½ is 5.1 h.

Q: What about the F ([6]; Oral 10 mg/kg vs IV) of the same compound?
A: Its F is 47%.

Q: And the Tmax ([6]; in vivo, Oral 10 mg/kg)?
A: Its Tmax is 6 h.
